Results taken from patent US10919943B2, “Mutant proteins enabling agrochemical control of plant gene expression” (The Regents of the University of California, priority 2016, dated 2021).

Test system: pUAS_GFP_mandi
Assay: Mandipropamid control of transcription, pUAS_GFP_mandi transient assay, anti-GFP Western blot
Format: in vivo, N. benthamiana
Settings: 50 μM mandipropamid, 24 hours; FIG. 14
Description: To establish if the orthogonal mandipropamid response module could be used to control transcriptional responses in vivo, we designed an experimental system where PYR1*^-MANDI was fused to the GAL4 AD, and HAB1* fused to its BD. Nuclear export sequences were added to the BD-HAB1* component to reduce its access to the nucleus in the absence of mandipropamid and thereby reduce background transcription from the UAS. The constructs were assembled into a plant transformation vector along with a GAL4-responsive UAS in front of a CaMV minimal promoter driving GFP. The plant transformation vector used was a derivative of pCB308 (Xiang, Han, Lutziger, Wang, & Oliver, 1999) in which a kanamycin resistance marker cassette replaces the vector's centrally located uidA and bar expression cassettes. […]
The resultant construct (pUAS_GFP_mandi) was tested using transient assays in N. benthamiana, as described above. […] 24 hours later, leaf tissue was collected, frozen in liquid N2, and homogenized by bead beating using Precellys instrument (Bertin Technologies), for 6000 rpm for 30 seconds and then resuspended in SDS sample buffer containing protease inhibitor, separated by SDS-PAGE, electro-blotted onto nitrocellulose membrane and detected using an anti-GFP antibody as described in Example 4 above.

C#CCOc1ccc(CCNC(=O)C(OCC#C)c2ccc(Cl)cc2)cc1OC (stereo not shown) [mandipropamid]
GFP production: mandipropamid inducible GFP production
